For 22 compounds, IC50 results are on record in US20240336594A1, “SIX-MEMBERED ARYL OR HETEROARYL AMIDES, AND COMPOSITION AND USE THEREOF” (BETTA PHARMACEUTICALS CO., LTD, priority 2021, published 2024).

Molecules are shown by their SMILES.

The test concerns the target T1, MALT1 (Homo sapiens, UniProt Q9UDY8).
T1 sequence (Q9UDY8 1-824): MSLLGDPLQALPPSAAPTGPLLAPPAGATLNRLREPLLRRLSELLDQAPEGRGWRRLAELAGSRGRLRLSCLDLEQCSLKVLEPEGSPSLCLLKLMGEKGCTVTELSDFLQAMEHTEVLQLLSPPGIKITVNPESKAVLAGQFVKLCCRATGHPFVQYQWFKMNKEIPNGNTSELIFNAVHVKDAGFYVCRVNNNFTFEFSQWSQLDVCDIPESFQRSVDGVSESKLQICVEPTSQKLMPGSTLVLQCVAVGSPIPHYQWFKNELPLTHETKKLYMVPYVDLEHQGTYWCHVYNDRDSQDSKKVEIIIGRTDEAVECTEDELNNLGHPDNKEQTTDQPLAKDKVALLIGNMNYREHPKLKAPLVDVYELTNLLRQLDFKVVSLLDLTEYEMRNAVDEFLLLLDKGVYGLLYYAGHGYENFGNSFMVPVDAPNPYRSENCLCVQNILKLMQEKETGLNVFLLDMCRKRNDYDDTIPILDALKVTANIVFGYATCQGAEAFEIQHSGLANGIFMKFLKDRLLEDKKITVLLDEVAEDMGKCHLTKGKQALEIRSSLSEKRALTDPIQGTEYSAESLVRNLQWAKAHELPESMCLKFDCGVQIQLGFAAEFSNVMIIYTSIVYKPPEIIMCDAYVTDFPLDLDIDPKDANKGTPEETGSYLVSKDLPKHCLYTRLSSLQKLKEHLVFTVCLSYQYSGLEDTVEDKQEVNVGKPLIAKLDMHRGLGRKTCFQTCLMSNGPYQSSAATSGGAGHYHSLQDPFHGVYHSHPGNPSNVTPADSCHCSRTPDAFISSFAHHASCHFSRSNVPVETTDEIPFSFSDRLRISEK
The experiment in a line: MALT1 protease inhibition assay (AMC-labeled peptide, fluorescence 360/460). The following applies: substrate Ac-LRSR-AMC, 15 min preincubation, 90 min at 25° C. It is filed as biochemical. The procedure:
Test compounds of the present invention (in 100% DMSO) were spotted into a 384-well dilution plate and serially diluted to the required concentrations with DMSO. Then, 0.2 μL of the test compounds were transferred into a new 384-well reaction plate by Echo following centrifugation. The MALT enzyme and its substrate, AMC-labeled peptide, were prepared in 1× protease buffer to yield 2× enzyme solution and 2× peptide solution. Subsequently, 10 μL of 2× enzyme solution was added into the 384-well reaction plate, incubating with the test compounds for 15 minutes at 25° C. After that, 10 μL of 2× peptide solution was added into the plate, continuing to incubate for 90 minutes at 25° C. The plate was then placed on an Envision multifunctional microplate reader to collect raw data, which would be converted into inhibition rate:
Inhibition rate %=(max−sample)/(max−min)*100%. • “max” values were measured using the reaction with enzyme but no compound treated, while “min” values were generated from control wells containing assay buffer without enzyme.
Curve fitting was done with Graphpad Prism software to determine the IC50 values. The specific experimental operations are as follows:
58.82 g Na Citrate·2H2O powder was added into 140 mL ddH2O and mixed in a 37° C. water bath. Once there were no visible particles, the remaining solutions were added successively with continuous stirring for 10 minutes. The final volume was adjusted to 200 mL. The buffer was stored at room temperature. DTT was added before use.
• 1) All test compounds were diluted from 10 mM stock solution into 1 mM in a 384 well dilution plate (labcyte, PP-0200); • 2) Ten various concentrations of the diluted compound solution above were obtained by serial dilution at an equal ratio of 1:3; • 3) 0.2 μL DMSO was transferred to two empty wells of the 384 reaction plate as blank controls without compound and enzyme respectively; • 4) 0.2 μL of the test compound at different concentrations was also transferred into the 384 reaction plate by Echo, with two duplicate wells for each concentration, then the plate was centrifuged at 1000 rpm for 1 min.
• 1) The MALT1 protease and AMC-labeled peptide was prepared in 1× protease buffer to obtain 2× enzyme solution and 2× peptide solution. 10 μL of 2× enzyme solution was added into the 384-well reaction plate. The plate was centrifuged at 1000 rpm for 1 min and incubated for 15 min at 25° C. • 2) 10 μL of 2× peptide solution was then transferred to the 384 reaction plate, and the plate was centrifuged at 1000 rpm for 1 min and incubate for 90 min at 25° C.
The compound `Nc1cc(F)ccc1-c1cc(Cl)c(C(=O)Nc2cnc(C(=O)NCCOC(F)(F)F)c(Cl)c2)cc1F` [Example A459, 5-(2′-amino-5-chloro-2,4′-difluoro-[1,1′-biphenyl]-4-carboxamido)-3-chloro-N-(2-(trifluoromethoxy)ethyl)picolinamide] registered an IC50 of 100 to 500 nM.

The compound `Nc1cc(F)ccc1-c1cc(Cl)c(C(=O)Nc2cnc(-n3nccn3)c(Cl)c2)cc1N` [Example A460, 2,2′-diamino-5-chloro-N-(5-chloro-6-(2H-1,2,3-triazol-2-yl)pyridin-3-yl)-4′-fluoro-[1,1′-biphenyl]-4-carboxamide] came in with an IC50 of 10 to 100 nM.

The compound `Nc1cc(F)ccc1-c1cc(Cl)c(C(=O)Nc2cnc(C(=O)NCCF)c(Cl)c2)cc1F` [Example A461, 5-(2′-amino-5-chloro-2,4′-difluoro-[1,1′-biphenyl]-4-carboxamido)-3-chloro-N-(2-fluoroethyl)picolinamide] yielded an IC50 of 10 to 100 nM.

On to `Cc1nnc(CNC(=O)c2ncc(NC(=O)c3cc(F)c(-c4ccc(F)cc4N)cc3Cl)cc2Cl)o1` [Example A462, 5-(2′-amino-5-chloro-2,4′-difluoro-[1,1′-biphenyl]-4-carboxamido)-3-chloro-N-((5-methyl-1,3,4-oxadiazol-2-yl)methyl)picolinamide], for which the IC50 was 10 to 100 nM. With `Nc1cc(F)ccc1-c1cc(Cl)c(C(=O)Nc2cnc(C(=O)NCc3nc[nH]n3)c(Cl)c2)cc1F` [Example A463, N-((1H-1,2,4-triazol-3-yl)methyl)-5-(2′-amino-5-chloro-2,4′-difluoro-[1,1′-biphenyl]-4-carboxamido)-3-chloropicolinamide] the figure was 10 to 100 nM; with `CCSCCNC(=O)c1ncc(NC(=O)c2cc(F)c(-c3ccc(F)cc3N)cc2Cl)cc1Cl` [Example A464, 5-(2′-amino-5-chloro-2,4′-difluoro-[1,1′-biphenyl]-4-carboxamido)-3-chloro-N-(2-(ethylthio)ethyl) picolinamide], 10 to 100 nM; with `NC(=O)CNC(=O)c1ncc(NC(=O)c2cc(F)c(-c3ccc(F)cc3N)cc2Cl)cc1Cl` [Example A465, N-(2-amino-2-oxoethyl)-5-(2′-amino-5-chloro-2,4′-difluoro-[1,1′-biphenyl]-4-carboxamido)-3-chloropicolinamide], 10 to 100 nM. For `N#CC1(CNC(=O)c2ncc(NC(=O)c3cc(F)c(-c4ccc(F)cc4N)cc3Cl)cc2Cl)CC1` [Example A466, 5-(2′-amino-5-chloro-2,4′-difluoro-[1,1′-biphenyl]-4-carboxamido)-3-chloro-N-((1-cyanocyclopropyl)methyl)picolinamide], the IC50 was in the range of 10 to 100 nM. The value for `Nc1cc(F)ccc1-c1cc(Cl)c(C(=O)Nc2cnc(C(=O)NCC(F)(F)C(F)(F)F)c(Cl)c2)cc1F` [Example A467, 5-(2′-amino-5-chloro-2,4′-difluoro-[1,1′-biphenyl]-4-carboxamido)-3-chloro-N-(2,2,3,3,3-pentafluoropropyl) picolinamide] was 100 to 500 nM.

As to `Nc1cc(F)ccc1-c1cc(Cl)c(C(=O)Nc2cnc(C(=O)NCC3(C(F)(F)F)CC3)c(Cl)c2)cc1F` [Example A468, 5-(2′-amino-5-chloro-2,4′-difluoro-[1,1′-biphenyl]-4-carboxamido)-3-chloro-N-((1-(trifluoromethyl)cyclopropyl)methyl) picolinamide], the IC50 was in the range of 100 to 500 nM. The value for `CS(=O)(=O)CCNC(=O)c1ncc(NC(=O)c2cc(F)c(-c3ccc(F)cc3N)cc2Cl)cc1Cl` [Example A469, 5-(2′-amino-5-chloro-2,4′-difluoro-[1,1′-biphenyl]-4-carboxamido)-3-chloro-N-(2-(methylsulfonyl)ethyl) picolinamide] was 10 to 100 nM; that for `C#Cc1cncc(N)c1-c1cc(Cl)c(C(=O)Nc2cnc(C(=O)NCC(F)F)c(Cl)c2)cc1F` [Example A471, 5-(4-(3-amino-5-ethynylpyridin-4-yl)-2-chloro-5-fluorobenzamido)-3-chloro-N-(2,2-difluoroethyl)picolinamide] was at most 10 nM. For the compound `C#Cc1cncc(N)c1-c1cc(Cl)c(C(=O)Nc2cnc(C(=O)NCCF)c(Cl)c2)cc1F` [Example A472, 5-(4-(3-amino-5-ethynylpyridin-4-yl)-2-chloro-5-fluorobenzamido)-3-chloro-N-(2-fluoroethyl)picolinamide], the concentration for half-maximal inhibition (IC50) was at most 10 nM. The value for `Nc1cncc(C2CC2)c1-c1cc(Cl)c(C(=O)Nc2cnc(-n3nccn3)c(C(F)(F)F)c2)cc1F` [Example A475, N-(6-(2H-1,2,3-triazol-2-yl)-5-(trifluoromethyl)pyridin-3-yl)-4-(3-amino-5-cyclopropylpyridin-4-yl)-2-chloro-5-fluorobenzamide] was at most 10 nM; that for `C#Cc1cncc(N)c1-c1cc(Cl)c(C(=O)Nc2cnc(C(=O)NCC(C)(C)C)c(Cl)c2)cc1F` [Example A478, 5-(4-(3-amino-5-ethynylpyridin-4-yl)-2-chloro-5-fluorobenzamido)-3-chloro-N-neopentylpicolinamide] was at most 10 nM. The value for `C#Cc1cncc(N)c1-c1cc(Cl)c(C(=O)Nc2cnc(C(=O)NCC)c(Cl)c2)cc1F` [Example A479, 5-(4-(3-amino-5-ethynylpyridin-4-yl)-2-chloro-5-fluorobenzamido)-3-chloro-N-ethylpicolinamide] was at most 10 nM; that for `C#Cc1cnc(F)c(N)c1-c1cc(Cl)c(C(=O)Nc2cnc(-n3nccn3)c(Cl)c2)cc1F` [Example A485, 4-(3-amino-5-ethynyl-2-fluoropyridin-4-yl)-2-chloro-N-(5-chloro-6-(2H-1,2,3-triazol-2-yl)pyridin-3-yl)-5-fluorobenzamide] was at most 10 nM. With `C#Cc1c(F)ncc(N)c1-c1cc(Cl)c(C(=O)Nc2cnc(-n3nccn3)c(Cl)c2)cc1F` [Example A486, 4-(5-amino-3-ethynyl-2-fluoropyridin-4-yl)-2-chloro-N-(5-chloro-6-(2H-1,2,3-triazol-2-yl)pyridin-3-yl)-5-fluorobenzamide] the figure was at most 10 nM; with `C=C(C)c1cncc(N)c1-c1cc(Cl)c(C(=O)Nc2cnc(-n3nccn3)c(Cl)c2)cc1F` [Example A504, 4-(3-amino-5-(prop-1-en-2-yl)pyridin-4-yl)-2-chloro-N-(5-chloro-6-(2H-1,2,3-triazol-2-yl)pyridin-3-yl)-5-fluorobenzamide], at most 10 nM; with `C=Cc1cncc(N)c1-c1cc(Cl)c(C(=O)Nc2cnc(-n3nccn3)c(Cl)c2)cc1F` [Example A507, 4-(3-amino-5-vinylpyridin-4-yl)-2-chloro-N-(5-chloro-6-(2H-1,2,3-triazol-2-yl)pyridin-3-yl)-5-fluorobenzamide], at most 10 nM. The compound `Nc1cncc(Br)c1-c1cc(Cl)c(C(=O)Nc2cnc(-n3nccn3)c(C(F)(F)F)c2)cc1F` [Example A517, N-(6-(2H-1,2,3-triazol-2-yl)-5-(trifluoromethyl)pyridin-3-yl)-4-(3-amino-5-bromopyridin-4-yl)-2-chloro-5-fluorobenzamide] displayed an IC50 of at most 10 nM. With `C#Cc1cncc(N)c1-c1cc(Cl)c(C(=O)Nc2ccnc(C(F)(F)F)c2)cc1F` [Example A518, 4-(3-amino-5-ethynylpyridin-4-yl)-2-chloro-5-fluoro-N-(2-(trifluoromethyl)pyridin-4-yl)benzamide] the figure was at most 10 nM.
